This note sets out measurements from US10765680B2, “Combination of a MCL-1 inhibitor and a taxane compound, uses and pharmaceutical compositions thereof” (priority 2017, dated 2020).

A value given as a limit tells only on which side of the number the result lay.

The term IC50 denotes the concentration at which inhibition is half-maximal.

Assay [1] has as its system BT-549 breast cancer cell line. Description: 72 hours CellTiter-Glo proliferation assay, BT-549. The assay is classed as cell-based. As to conditions: single agent, read-out: Abs IC50. How it is done: (§1) Compounds were dissolved in 100% DMSO (Sigma, Catalog # D2438-50 ML) at a stock concentration of 10 mM and stored at −20° C. until use. Compounds were arrayed in 2 ml deep 96-well plates (Greiner bio-one, catalog number 780271) serially diluted 3-fold. Compound 1 was used over a concentration range of 0.0-10.0 μM. Paclitaxel was used over a concentration range of 0.0-1.0 μM in breast cancer cells and 0.0-2.0 μM range in lung cancer cells.
(§2) All cell lines were purchased from the American Type Culture Collection and cultured according to vendor recommendations. […] All cell lines were determined to be free of mycoplasma contamination by a PCR detection assay performed at Idexx Radil (Columbia, Mo., USA) and authenticated by SNP analysis. […] Cells were expanded to T-75 flasks and assessed for viability using a Beckman-Coulter ViCell counter prior to plating. […]
(§3) Cell proliferation was measured in 72 hours CellTiter-Glo™ (CTG) assays and all results shown are the result of at least triplicate measurements. […] After 72 hours of compound treatment the effects of compounds on cell proliferation was determined using the CellTiter-Glo™ Luminescent Cell Viability Assay (Promega, Catalog # G7573). This is a homogeneous method to determine the number of viable cells in culture based on quantitation of the ATP present, which signals the presence of metabolically active cells. […]
On the technique in general: ATP-based viability assays read luminescence as a measure of living cells.

Assay [2] has as its system Cal-148 breast cancer cell line. Description: 72 hours CellTiter-Glo proliferation assay, Cal-148. The assay is classed as cell-based. The note with it: single agent, read-out: Abs IC50. The protocol:
as §1, §2, §3

In assay [3] the test system is HCC1395 breast cancer cell line. Description: 72 hours CellTiter-Glo proliferation assay, HCC1395. The assay is classed as cell-based. The note with it: single agent, read-out: Abs IC50. The protocol: as §1, §2, §3
Assay [4] relates to HCC70 breast cancer cell line. Put plainly: 72 hours CellTiter-Glo proliferation assay, HCC70. In kind it is cell-based. The note with it: single agent, read-out: Abs IC50. How it is done:
as §1, §2, §3

The subject of assay [5] is Hs 578T breast cancer cell line. Put plainly: 72 hours CellTiter-Glo proliferation assay, Hs 578T. The note with it: single agent, read-out: Abs IC50. In kind it is cell-based. How it is done:
as §1, §2, §3

Assay [6] relates to MCF7 breast cancer cell line. Description: 72 hours CellTiter-Glo proliferation assay, MCF7. In kind it is cell-based. As to conditions: single agent, read-out: Abs IC50. The protocol: as §1, §2, §3
Assay [7] deals with MDA-MB-231 breast cancer cell line. Description: 72 hours CellTiter-Glo proliferation assay, MDA-MB-231. The assay is classed as cell-based. The note with it: single agent, read-out: Abs IC50. The protocol:
as §1, §2, §3

The test system of assay [8] is SK-BR-3 breast cancer cell line. Put plainly: 72 hours CellTiter-Glo proliferation assay, SK-BR-3. The assay is classed as cell-based. As to conditions: single agent, read-out: Abs IC50. How it is done:
as §1, §2, §3

The subject of assay [9] is NCI-H23 lung cancer cell line. Put plainly: 72 hours CellTiter-Glo proliferation assay, NCI-H23. The assay is classed as cell-based. The note with it: single agent, read-out: Abs IC50. How it is done:
as §1, §2, §3

Assay [10] deals with PDX models resistant to docetaxel. Description: PDX models resistant to docetaxel, efficacy. The assay is classed as in vivo, female Swiss Nude mice. As to conditions: Compound 1 70 mg/kg IV once a week, liposomal formulation. The protocol:
PDX models whose resistance to docetaxel has been confirmed in vivo were tested. Each treatment group included 5 female Swiss Nude mice, aged from 6 to 8 weeks old. The treatment started when xenografts reached a mean tumor volume of ˜120-150 mm^3. Groups of mice were then randomly affected to the different treatments. The number of grafted animals depended on the homogeneity of the tumor growth.
Formulated in a liposomal formulation, Compound 1 was administered intravenously at 70 mg/kg once a week. The formulation had to be prepared extemporaneously. Paclitaxel diluted in 0.9% NaCl was given ip at 25 mg/kg. Paclitaxel was given QW 16 hours before the administration of Compound 1. The administration schedule of the different treatments is defined as follows: […]
Tumor sizes were measured twice a week and weights of individual mice were measured once a week. Treatments were done until the median tumor volume of the most responsive group started to regrow. Mice were followed after the stop of the treatment to compare the time to relapse between the groups. […]

Consider `COc1ccccc1-c1nccc(COc2ccccc2C[C@@H](Oc2ncnc3sc(-c4ccc(F)cc4)c(-c4ccc(OCCN5CCN(C)CC5)c(Cl)c4C)c23)C(=O)O)n1` [Compound 1, (2R)-2-{[(5Sa)-5-{3-chloro-2-methyl-4-[2-(4-methylpiperazin-1-yl)ethoxy]phenyl}-6-(4-fluorophenyl)thieno[2,3-d]pyrimidin-4-yl]oxy}-3-(2-{[2-(2-methoxyphenyl)pyrimidin-4-yl]methoxy}phenyl)propanoic acid], for which the IC50 was over 10000 nM in assay [1]; 1330 nM in assay [2]; 9920 nM in assay [3]; 704 nM in [4]; 520 nM in assay [5]; 1290 nM in assay [6]. The concentration for half-maximal inhibition (IC50) in assay [7] is over 10000 nM; in assay [8], 301 nM; in assay [9], 160 nM. Moreover, the “inhibition of tumor growth, single agent” value in [10] is “insufficient in inhibiting tumor growth”.
